From patent publication US8198311B2, “Modulators of glucocorticoid receptor, AP-1, and/or NF-κB activity and use thereof” (Bristol-Myers Squibb Company, priority 2006, dated 2012)
Read-outs that look alike come from different tables or passages of the source.

Key:
[1] = system: AP-1 induced transcriptional activity; assay: Cellular Transrepressional Assay (AP-1 luciferase reporter in A549 cells, PMA-activated); type: cell-based; settings: pAP-1-Luc, 10 ng/ml PMA, read-out: AP-1 (EC50, nM) (Cellular Transrepression Assay)
Summary of the method: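 A549 cells stably carrying a 7×AP-1-luciferase reporter, stimulated with 10 ng/ml PMA with or without compound (0.1 nM-40 μM) for 7 h. Luciferase luminescence read 10 min after reagent addition; repression is percentage decrease of PMA-alone signal, EC50 by curve fitting.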

[2] = biological target: T1, human full-length glucocorticoid receptor (Homo sapiens, UniProt P04150); assay: Glucocorticoid Receptor Binding Assay (II), fluorescence polarization competitor kit (Fluormone GS1); settings: cell lysate with recombinant human full-length GR
T1 construct: recombinantly expressed human full-length glucocorticoid receptor; purchased PanVera Co., Madison, Wis; P2816
T1 sequence (P04150 1-777): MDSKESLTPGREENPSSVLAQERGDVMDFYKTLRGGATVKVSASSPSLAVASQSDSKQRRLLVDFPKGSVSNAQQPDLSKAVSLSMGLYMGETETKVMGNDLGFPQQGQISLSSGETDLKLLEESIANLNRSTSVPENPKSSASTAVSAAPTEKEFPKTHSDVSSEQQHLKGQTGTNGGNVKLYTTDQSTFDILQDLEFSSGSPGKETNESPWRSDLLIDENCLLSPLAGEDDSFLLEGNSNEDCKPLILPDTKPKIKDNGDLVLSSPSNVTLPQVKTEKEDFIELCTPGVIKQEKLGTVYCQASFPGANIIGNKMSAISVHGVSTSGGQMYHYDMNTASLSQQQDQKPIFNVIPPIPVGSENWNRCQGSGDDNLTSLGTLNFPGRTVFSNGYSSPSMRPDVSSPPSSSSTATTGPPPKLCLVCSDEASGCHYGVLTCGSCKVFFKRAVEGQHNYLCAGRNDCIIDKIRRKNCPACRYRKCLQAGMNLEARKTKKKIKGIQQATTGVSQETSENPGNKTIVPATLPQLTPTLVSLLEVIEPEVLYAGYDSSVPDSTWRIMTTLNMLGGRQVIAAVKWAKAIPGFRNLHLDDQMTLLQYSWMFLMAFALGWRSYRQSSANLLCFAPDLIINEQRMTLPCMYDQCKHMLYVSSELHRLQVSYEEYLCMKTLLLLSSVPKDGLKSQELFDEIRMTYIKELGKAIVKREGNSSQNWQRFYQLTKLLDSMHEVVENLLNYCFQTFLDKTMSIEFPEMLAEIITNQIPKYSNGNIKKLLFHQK
Experimental: In order to measure the binding of compounds on the glucocorticoid receptor a commercially available kit was used (Glucocorticoid receptor competitor assay kit, PanVera Co., Madison, Wis., P2816). Briefly, a cell lysate containing recombinantly expressed human full-length glucocorticoid receptor was mixed with a fluorescently labeled glucocorticoid (1 nM Fluormone GS1) in the presence or absence of test compound. After one hour at room temperature, the fluorescence polarization (FP) of the samples were measured. […] Test molecules were analyzed in the concentration range from 2.4 nM to 40 microMolar.

[3] = biological target: T2, human glucocorticoid receptor (Homo sapiens, UniProt P04150); assay: Glucocorticoid Receptor Binding Assay (I), fluorescence polarization competitor kit (Fluormone GS Red); settings: purified human recombinant full-length GR
T2 construct: purified human recombinant full-length glucocorticoid receptor (2 nM); purchased Invitrogen Part # 2893
T2 sequence (P04150 1-777): T1 sequence (P04150 1-777)
Summary of the method: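 Fluorescence polarization competition: full-length recombinant human GR (2 nM) incubated with 1 nM Fluormone GS Red plus test compound (8.5E-05 to 5 μM) for 2 h at room temperature in the dark before FP read-out.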

Row | EC50 ([1]; Homo sapiens, A549, 7 h) [nM] | Ki [2] [nM] | EC50 ([1]; 7 hours) [nM] | Ki [3] [nM] | Structure (SMILES)
1 | > 10000 | 14 |  |  | CC(C)(C(=O)c1ccccc1)C(c1ccccc1)c1ccc2c(cnn2-c2ccc(F)cc2)c1 (stereo not drawn) [Example 125]
2 | 1280 | 8.3 |  |  | CC(C)(C)CC(=O)NCC(C)(C)[C@@H](c1ccccc1)c1ccc2c(cnn2-c2ccc(F)cc2)c1 [Example 1, (S)-N-(3-(1-(4-fluorophenyl)-1H-indazol-5-yl)-2,2-dimethyl-3-phenylpropyl)-3,3-dimethylbutanamide]
3 | > 10000 | 115 |  |  | Cn1ncc2cc([C@H](c3ccccc3)C(C)(C)CNC(=O)CC(F)(F)F)ccc21 [Example 84, (S)—N-(2,2-Dimethyl-3-(1-methyl-1H-indazol-5-yl)-3-phenylpropyl)-3,3,3-trifluoropropanamide]
4 |  | 14 | > 10000 |  | CC(C)CC(c1ccc2c(cnn2-c2ccc(F)cc2)c1)C(C)(C)CNC(=O)NCC(F)(F)F (single isomer, unassigned) [Example 58A, 1-(3-(1-(4-fluorophenyl)-1H-indazol-5-yl)-2,2,5-trimethylhexyl)-3-(2,2,2-trifluoroethyl)urea]
5 | > 10000 | 21 |  |  | CC(=O)C(C)(C)C(c1ccccc1)c1ccc2c(cnn2-c2ccc(F)cc2)c1 (stereo not drawn) [Example 120, 4-(1-(4-Fluorophenyl)-1H-indazol-5-yl)-3,3-dimethyl-4-phenylbutan-2-one]
6 | 691 |  |  | 8.4 | CC(C)(C)NC(=O)NCC(C)(C)C(c1ccc2c(cnn2-c2ccc(F)cc2)c1)C1CC1 (stereo not drawn) [Example 102, 1-tert-butyl-3-(3-cyclopropyl-3-(1-(4-fluorophenyl)-1H-indazol-5-yl)-2,2-dimethylpropyl)urea]
7 |  |  | 158 | 3.5 | CC(CNC(=O)NC(C)(C)C)C(c1ccccc1)c1ccc2c(cnn2-c2ccc(F)cc2)c1 (single isomer, unassigned) [Example 97C, 1-tert-butyl-3-(3-(1-(4-fluorophenyl)-1H-indazol-5-yl)-2-methyl-3-phenylpropyl)urea]
8 | 13 |  |  | 0.63 | CC(C)(CNC(=O)CC(F)(F)F)[C@@H](c1ccccc1)c1ccc2c(cnn2-c2ccc(F)cc2)c1 [(S)-17, (S)-3,3,3-trifluoro-N-(3-(1-(4-fluorophenyl)-1H-indazol-5-yl)-2,2-dimethyl-3-phenylpropyl)-propanamide]
9 | > 10000 |  |  | 3.2 | CC(C)CC(c1ccc2c(cnn2-c2ccc(F)cc2)c1)C(C)(C)CNC(=O)N1CCC[C@@H]1CO (stereo partly drawn) [Example 39, (2R)-N-(3-(1-(4-fluorophenyl)-1H-indazol-5-yl)-2,2,5-trimethylhexyl)-2-(hydroxymethyl)pyrrolidine-1-carboxamide]
10 | 813 |  |  | 2.2 | CC(C)CC(c1ccc2c(cnn2-c2ccc(F)cc2)c1)C(C)(C)CNC(=O)N[C@@H]1c2ccccc2C[C@@H]1O (stereo partly drawn) [Example 78, 1-(3-(1-(4-fluorophenyl)-1H-indazol-5-yl)-2,2,5-trimethylhexyl)-3-((1R,2S)-2-hydroxy-2,3-dihydro-1H-inden-1-yl)urea]
11 |  |  | 176 | 21 | CC(CNC(=O)CC(F)(F)F)C(c1ccccc1)c1ccc2c(cnn2-c2ccc(F)cc2)c1 (single isomer, unassigned) [Example 90B, 3,3,3-trifluoro-N-(3-(1-(4-fluorophenyl)-1H-indazol-5-yl)-2-methyl-3-phenylpropyl)propanamide]
12 | 5.6 |  |  | 0.92 | CCS(=O)(=O)NCC(C)C(c1ccccc1)c1ccc2c(cnn2-c2ccc(F)cc2)c1 (stereo not drawn) [Example 93, N-(3-(1-(4-fluorophenyl)-1H-indazol-5-yl)-2-methyl-3-phenylpropyl)ethanesulfonamide]
13 | 6050 |  |  | 1.5 | CC(C)CC(c1ccc2c(cnn2-c2ccc(F)cc2)c1)C(C)(C)CNC(=O)NC(CO)CO (stereo not drawn) [Example 46, 1-(1,3-dihydroxypropan-2-yl)-3-(3-(1-(4-fluorophenyl)-1H-indazol-5-yl)-2,2,5-trimethylhexyl)urea]
14 | 80 |  |  | 6.1 | CC(C)CC(c1ccc2c(cnn2-c2ccc(F)cc2)c1)C(C)(C)CNC(=O)NC(C)(C)C(=O)Nc1ccccc1 (stereo not drawn) [Example 56, 2-(3-(3-(1-(4-fluorophenyl)-1H-indazol-5-yl)-2,2,5-trimethylhexyl)ureido)-2-methyl-N-phenylpropanamide]
15 | 23 |  |  | 2.1 | CCCC(c1ccc2c(cnn2-c2ccc(F)cc2)c1)C(C)(C)CNC(=O)NC(C)(C)C (stereo not drawn) [Example 104, 1-tert-butyl-3-(3-(1-(4-fluorophenyl)-1H-indazol-5-yl)-2,2-dimethylhexyl)urea]
16 | 223 |  |  | 7.5 | CC(C)CC(c1ccc2c(cnn2-c2ccc(F)cc2)c1)C(C)(C)CNC(=O)Nc1ccccc1 (stereo not drawn) [Example 50, 1-(3-(1-(4-fluorophenyl)-1H-indazol-5-yl)-2,2,5-trimethylhexyl)-3-phenylurea]
17 | 698 |  |  | 1.4 | CC(C)CC(c1ccc2c(cnn2-c2ccc(F)cc2)c1)C(C)(C)CNC(=O)N(C)C (stereo not drawn) [Example 55, 3-(3-(1-(4-fluorophenyl)-1H-indazol-5-yl)-2,2,5-trimethylhexyl)-1,1-dimethylurea]
18 | 177 |  |  | 3 | CC(C)CC(c1ccc2c(cnn2-c2ccc(F)cc2)c1)C(C)(C)CNC(=O)CC(C)(C)C (stereo not drawn) [Example 66, N-(3-(1-(4-fluorophenyl)-1H-indazol-5-yl)-2,2,5-trimethylhexyl)-3,3-dimethylbutanamide]
19 |  |  | 201 | 15 | CC(CNS(=O)(=O)CC(F)(F)F)C(c1ccccc1)c1ccc2c(cnn2-c2ccc(F)cc2)c1 (single isomer, unassigned) [Example 91B, 2,2,2-trifluoro-N-(3-(1-(4-fluorophenyl)-1H-indazol-5-yl)-2-methyl-3-phenylpropyl)ethanesulfonamide]
20 | > 10000 |  |  | 11 | CC(C)CC(c1ccc2c(cnn2-c2ccc(F)cc2)c1)C(C)(C)CNC(=O)N1CC(N)C1 (stereo not drawn) [Example 40, 3-amino-N-(3-(1-(4-fluorophenyl)-1H-indazol-5-yl)-2,2,5-trimethylhexyl)azetidine-1-carboxamide]
21 | 12 |  |  | 0.73 | CC(CNS(=O)(=O)C(C)C)C(c1ccccc1)c1ccc2c(cnn2-c2ccc(F)cc2)c1 (stereo not drawn) [Example 94, N-(3-(1-(4-fluorophenyl)-1H-indazol-5-yl)-2-methyl-3-phenylpropyl)propane-2-sulfonamide]
22 | > 10000 |  |  | 8.7 | CC(C)CC(c1ccc2c(cnn2-c2ccc(F)cc2)c1)C(C)(C)CNC(=O)N[C@@H](C)c1cccc2ccccc12 (stereo partly drawn) [Example 76, 1-(3-(1-(4-fluorophenyl)-1H-indazol-5-yl)-2,2,5-trimethylhexyl)-3-((S)-1-(naphthalene-1-yl)ethyl)urea]
23 | 204 |  |  | 1.3 | CC(C)CC(c1ccc2c(cnn2-c2ccc(F)cc2)c1)C(C)(C)CNC(=O)N[C@@H](C)CO (stereo partly drawn) [Example 47, 1-(3-(1-(4-fluorophenyl)-1H-indazol-5-yl)-2,2,5-trimethylhexyl)-3-((S)-1-hydroxypropan-2-yl)urea]
24 | 194 |  |  | 5.8 | CC(C)CC(c1ccc2c(cnn2-c2ccc(F)cc2)c1)C(C)(C)CNC(=O)N[C@H]1CCc2ccccc21 (stereo partly drawn) [Example 71A, 1-((S)-2,3-dihydro-1H-inden-1-yl)-3-(3-(1-(4-fluorophenyl)-1H-indazol-5-yl)-2,2,5-trimethylhexyl)urea]
25 | 12 |  |  | 0.94 | CC(CNS(C)(=O)=O)C(c1ccccc1)c1ccc2c(cnn2-c2ccc(F)cc2)c1 (stereo not drawn) [Example 92, N-(3-(1-(4-fluorophenyl)-1H-indazol-5-yl)-2-methyl-3-phenylpropyl)methanesulfonamide]
26 |  | 1.4 |  |  | CC(C)CC(c1ccc2c(cnn2-c2ccc(F)cc2)c1)C(C)(C)CNC(=O)N(C)C (stereo not drawn) [Example 65, 3-(3-(1-(4-fluorophenyl)-1H-indazol-5-yl)-2,2,5-trimethylhexyl)-1,1-dimethylurea]
